According to publication PMC3393087 (Journal of the American Chemical Society, 2010):
In brackets after ≈: the same amount, converted by molar mass. Like-named read-outs stand apart in the source and are kept apart here.

Key:
[1] = tested on: A. baumannii strain JC7/04 pAT-RA; test: microbe, parasite or virus in culture; format: cell-based, Acinetobacter baumannii
[2] = tested on: A. baumannii strain JC7/04 pAT-RA/OXA-24 (WT); test: microbe, parasite or virus in culture; format: cell-based, Acinetobacter baumannii
[3] = tested on: A. baumannii strain JC7/04 pAT-RA/OXA-24 (Y112A,M223A); test: microbe, parasite or virus in culture; format: cell-based; conditions: Acinetobacter baumannii
OXA-24 Tyr112Ala = OXA-24 Tyr112Ala (Acinetobacter baumannii, UniProt Q8RLA6, Y112A); conditions: substrate hydrolysis by OXA-24 Tyr112Ala
[4] = target: OXA-24 Tyr112Ala Met 223Ala (Acinetobacter baumannii, UniProt Q8RLA6, M223A/Y112A); conditions: substrate hydrolysis by OXA-24 Tyr112Ala Met223Ala
[5] = pAT-RA without blaOXA-24, tazobactam, 1-5 tested at 16 μg/ml, 50 μg/mL rifampin
[6] = pAT-RA/OXA-24 (WT), tazobactam, 1-5 tested at 4 μg/ml, 50 μg/mL rifampin
[7] = pAT-RA/OXA-24 (WT), tazobactam, 1-5 tested at 16 μg/ml, 50 μg/mL rifampin

Structure (SMILES)	MIC ([1]; Acinetobacter baumannii, JC7/04PATRA, read-out: MIC of inhibitor alone)	reduction in MICs of meropenem or imipenem ([2]; inhibitor at 4 μg/ml combined with meropenem or imipenem, blaOXA-24 expressed)	MIC ([1]; pAT-RA without blaOXA-24, tazobactam, 1-5 tested at 4 μg/ml, 50 μg/mL rifampin)	MIC [1, 5]	MIC ([2]; Acinetobacter baumannii)	MIC [2, 6]	MIC [2, 7]	MIC [3]	Km (OXA-24 Tyr112Ala)	Km [4]
C[C@]1(Cn2ccnn2)[C@H](C(=O)O)N2C(=O)C[C@H]2S1(=O)=O [tazobactam]	> 64 µg/mL	did not detect a reduction in MICs	–	–	–	–	–	–	–	–
C[C@@H](O)[C@H]1C(=O)N2C(C(=O)O)=C(S[C@@H]3CN[C@H](C(=O)N(C)C)C3)[C@H](C)[C@H]12 [Meropenem, meropenem]	–	–	1 µg/mL	1 µg/mL	32 µg/mL (≈ 83.4 µM)	32 µg/mL	32 µg/mL	2 µg/mL (≈ 5.22 µM)	–	–
C[C@@H](O)[C@H]1C(=O)N2C(C(=O)O)=C(SCCN=CN)C[C@H]12 [Imipenem, imipenem]	–	–	–	1 µg/mL	32 µg/mL (≈ 107 µM)	32 µg/mL	32 µg/mL	4 µg/mL (≈ 13.4 µM)	–	–
O=C(Cc1cccs1)N[C@@H]1C(=O)N2C(C(=O)O)=C(/C=C/c3ccc([N+](=O)[O-])cc3[N+](=O)[O-])CS[C@H]12 [NCF, nitrocefin]	–	–	–	–	–	–	–	–	238 µM	143 µM
